Source: PubChem BioAssay AID2060903 (Molecular Pharmacology Branch, DTP, NCI, 2025)

System: 377384-186-R-J1-PDC complex spheroid viability
Test: Anticancer human tumor 377384-186-R-J1-PDC patient-derived pancreatic carcinoma cell line growth inhibition [RAS]
Conditions: for IC50: curve of first compound; for viability, T/C: stronger effect = lower value
Source text: RAS pathway inhibitors in Combinations in Complex Spheroids
A high-throughput screen of multi-cell type tumor spheroids was designed to identify active combinations of RAS pathway inhibitors and targeted small molecules. Complex spheroids include a stromal component modeled by human endothelial cells (HUVEC) and fibroblasts modeled by human mesenchymal stem cells (MSCs). The concentration ranges selected for each drug and investigational agent were based upon clinically achievable concentrations if the clinical Cmax of the agent was known.
Compounds. The drugs and investigational agents: abemaciclib (NSC768073), cobimetinib (NSC768068), divarasib (GDC6063, NSC841802), docetaxel (NSC628503), GDC-1971 (RLY-1971, NSC841576), gemcitabine (NSC613327), inavolisib (NSC800729), ipatasertib (NSC767898), KB-0742 (NSC834161), MRTX-1133 (NSC836407), osimertinib (NSC779217), RMC-4630 (NSC839698), RMC-6236 (NSC851965), RMC-6291 (NSC852671), Ro-3306 (NSC812927), sapanisertib (NSC764658), SN-38 (NSC673596), staurosporine (NSC755774), SY5609 (NSC837396), and tovorafenib (DAY101, NSC766906), were obtained from the National Cancer Institute (NCI) Developmental Therapeutics Program Chemical Repository. The FDA-approved anticancer drug set is available from the NCI Developmental Therapeutics Program. […] The stock solutions were prepared in dimethyl sulfoxide (DMSO, Sigma-Aldrich, St. Louis, MO, cat. D2650) at 800-fold the tested concentration and stored at -70 degrees C prior to their use. All drugs and investigational agents were tested over a range starting from a high concentration at or near the clinical Cmax and decreasing in half-log increments. If the clinical Cmax for an agent had not been determined, the highest concentration tested was 10 microM.
Cell Culture. All cells were maintained in an incubator at 37 degrees C and 5% CO2 with 95% humidity. The PDC lines were cultured according to standard operating procedures established by the NCI PDMR. All PDCs were thawed and cultured in Matrigel-coated flasks prepared with a working solution of 1X Ham's F-12 nutrient mix, without supplementation (Invitrogen, Waltham, MA, cat. 11765054), 100 U/mL penicillin-streptomycin (Invitrogen, cat. 15140122), and 2.5% Matrigel (Corning Inc., Corning, NY, cat. 354248) for the first three passages. The 362531-283-R-J2-PDC and 782815-120-R-J1-PDC lines were cultured in 6C/Colon 1B media, which includes advanced DMEM/F-12 (Thermo Fisher Scientific, cat. 12634028), 10 mM HEPES (Thermo Fisher Scientific, cat. 15630080), 1X GlutaMAX supplement (Thermo Fisher Scientific, cat. 35050061), 0.1 mg/mL primocin (InvivoGen, San Diego, CA, cat. ant-pm-2), 10% defined fetal bovine serum, heat inactivated (HyClone Laboratories Inc., Logan, UT, cat. SH30070.03HI), 50% L-WRN conditioned media (ATCC, cat. CRL-3276), 1.25 mM N-Acetyl-L-cysteine (Sigma-Aldrich, cat. A9165), 10 mM nicotinamide (Sigma-Aldrich, cat. N0636), 1X B-27 supplement (Thermo Fisher Scientific, cat. 17504044), 1X N-2 supplement (Thermo Fisher Scientific, cat. 17502048), 50 ng/mL human EGF (Thermo Fisher Scientific, cat. PHG0311), and 10 microM Y-27632 dihydrochloride (Tocris Bioscience, cat. 1254). The K12877-001-R-J1-PDC line was cultured in 6I media, which includes all 6C/Colon 1B media plus 10 ng/mL human FGF-10 (PeproTech, cat. 100-26), 1 ng/mL human FGF-2 (PeproTech, cat. 100-18B), 1 µM prostaglandin E2 (Tocris Bioscience, cat. 2296), […] hydrocortisone (Sigma-Aldrich, cat. H4001), and […] bovine insulin (Sigma-Aldrich, cat. I6634). The K86415-001-R-J1-PDC line was cultured in 6D media, which includes all 6C/Colon 1B media components minus the L-WRN conditioned media. The 485176-168-R4-J1-PDC was cultured in PANC media, which includes all 6C/Colon 1B media plus 100 ng/mL human FGF-10 (PeproTech, cat. 100-26), 500 nM SB-431542 (Selleckchem, cat. S1067), and 10 nM gastrin (Tocris Bioscience, cat. 3006). […]

[1] = second compound 0.0316 µM, first compound 0.0316 µM
[2] = second compound 0.0316 µM, first compound 0.1 µM
[3] = second compound 0.1 µM, first compound 0.0316 µM
[4] = second compound 0.1 µM, first compound 0.1 µM
[5] = second compound 0.316 µM, first compound 0.0316 µM
[6] = second compound 0.316 µM, first compound 0.1 µM
[7] = second compound 1 µM, first compound 0.0316 µM
[8] = second compound 1 µM, first compound 0.1 µM
[9] = second compound 3.16 µM, first compound 0.0316 µM
[10] = second compound 3.16 µM, first compound 0.1 µM
[11] = second compound 10 µM, first compound 0.0316 µM
[12] = second compound 10 µM, first compound 0.1 µM
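Also: spheroids exposed to compounds for seven days before readout.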

CC(C)NCC(C(=O)N1CCN(c2ncnc3c2C(C)CC3O)CC1)c1ccc(Cl)cc1 (centres undefined) + C#Cc1c(F)ccc2cc(O)cc(-c3ncc4c(N5CC6CCC(C5)N6)nc(OCC56CCCN5CC(F)C6)nc4c3F)c12
IC50 (second compound 0.0316 µM): < 31.6 nM
IC50 (second compound 0.1 µM): < 31.6 nM
IC50 (second compound 0.316 µM): < 31.6 nM
IC50 (second compound 1 µM): < 31.6 nM
IC50 (second compound 3.16 µM): < 31.6 nM
IC50 (second compound 10 µM): < 31.6 nM
viability, T/C [1]: 22.6%
viability, T/C [2]: 18.8%
viability, T/C (second compound 0.0316 µM, first compound 0.316 µM): 18.2%
viability, T/C (second compound 0.0316 µM, first compound 1 µM): 16.9%
viability, T/C (second compound 0.0316 µM, first compound 3.16 µM): 11%
viability, T/C (second compound 0.0316 µM, first compound 10 µM): 9.91%
viability, T/C [3]: 10.2%
viability, T/C [4]: 10.5%
viability, T/C (second compound 0.1 µM, first compound 0.316 µM): 8.54%
viability, T/C (second compound 0.1 µM, first compound 1 µM): 9.68%
viability, T/C (second compound 0.1 µM, first compound 3.16 µM): 6.47%
viability, T/C (second compound 0.1 µM, first compound 10 µM): 3.99%
viability, T/C [5]: 4.76%
viability, T/C [6]: 4.25%
viability, T/C (second compound 0.316 µM, first compound 0.316 µM): 5.02%
viability, T/C (second compound 0.316 µM, first compound 1 µM): 3.37%
viability, T/C (second compound 0.316 µM, first compound 3.16 µM): 3.87%
viability, T/C (second compound 0.316 µM, first compound 10 µM): 3.34%
viability, T/C [7]: 3.41%
viability, T/C [8]: 17.1%
viability, T/C (second compound 1 µM, first compound 0.316 µM): 2.83%
viability, T/C (second compound 1 µM, first compound 1 µM): 2.26%
viability, T/C (second compound 1 µM, first compound 3.16 µM): 1.72%
viability, T/C (second compound 1 µM, first compound 10 µM): 1.05%
viability, T/C [9]: 2.28%
viability, T/C [10]: 2.34%
viability, T/C (second compound 3.16 µM, first compound 0.316 µM): 1.81%
viability, T/C (second compound 3.16 µM, first compound 1 µM): 1.19%
viability, T/C (second compound 3.16 µM, first compound 3.16 µM): 1.15%
viability, T/C (second compound 3.16 µM, first compound 10 µM): 0.64%
viability, T/C [11]: 1.35%
viability, T/C [12]: 1.29%
viability, T/C (second compound 10 µM, first compound 0.316 µM): 0.78%
viability, T/C (second compound 10 µM, first compound 1 µM): 0.79%
viability, T/C (second compound 10 µM, first compound 3.16 µM): 0.61%
viability, T/C (second compound 10 µM, first compound 10 µM): 0.18%

CC(C)n1nc(-c2ccc3oc(N)nc3c2)c2c(N)ncnc21 + C#Cc1c(F)ccc2cc(O)cc(-c3ncc4c(N5CC6CCC(C5)N6)nc(OCC56CCCN5CC(F)C6)nc4c3F)c12
IC50 (second compound 0.0316 µM): < 0.316 nM
IC50 (second compound 0.1 µM): < 0.316 nM
IC50 (second compound 0.316 µM): < 0.316 nM
IC50 (second compound 1 µM): < 0.316 nM
IC50 (second compound 3.16 µM): < 0.316 nM
IC50 (second compound 10 µM): < 0.316 nM
viability, T/C (second compound 0.0316 µM, first compound 0.000316 µM): 23.1%
viability, T/C (second compound 0.0316 µM, first compound 0.001 µM): 17.9%
viability, T/C (second compound 0.0316 µM, first compound 0.00316 µM): 13.3%
viability, T/C (second compound 0.0316 µM, first compound 0.01 µM): 16.1%
viability, T/C [1]: 8.86%
viability, T/C [2]: 7.03%
viability, T/C (second compound 0.1 µM, first compound 0.000316 µM): 9.35%
viability, T/C (second compound 0.1 µM, first compound 0.001 µM): 10.2%
viability, T/C (second compound 0.1 µM, first compound 0.00316 µM): 8.78%
viability, T/C (second compound 0.1 µM, first compound 0.01 µM): 8.07%
viability, T/C [3]: 4.39%
viability, T/C [4]: 3.64%
viability, T/C (second compound 0.316 µM, first compound 0.000316 µM): 4.61%
viability, T/C (second compound 0.316 µM, first compound 0.001 µM): 4.79%
viability, T/C (second compound 0.316 µM, first compound 0.00316 µM): 3.5%
viability, T/C (second compound 0.316 µM, first compound 0.01 µM): 3.8%
viability, T/C [5]: 2.4%
viability, T/C [6]: 2.03%
viability, T/C (second compound 1 µM, first compound 0.000316 µM): 2.88%
viability, T/C (second compound 1 µM, first compound 0.001 µM): 2.78%
viability, T/C (second compound 1 µM, first compound 0.00316 µM): 2.19%
viability, T/C (second compound 1 µM, first compound 0.01 µM): 2.05%
viability, T/C [7]: 1.53%
viability, T/C [8]: 1.23%
viability, T/C (second compound 3.16 µM, first compound 0.000316 µM): 1.79%
viability, T/C (second compound 3.16 µM, first compound 0.001 µM): 2.07%
viability, T/C (second compound 3.16 µM, first compound 0.00316 µM): 2.15%
viability, T/C (second compound 3.16 µM, first compound 0.01 µM): 1.84%
viability, T/C [9]: 1.11%
viability, T/C [10]: 0.65%
viability, T/C (second compound 10 µM, first compound 0.000316 µM): 1.04%
viability, T/C (second compound 10 µM, first compound 0.001 µM): 0.81%
viability, T/C (second compound 10 µM, first compound 0.00316 µM): 0.8%
viability, T/C (second compound 10 µM, first compound 0.01 µM): 0.63%
viability, T/C [11]: 0.95%
viability, T/C [12]: 0.15%
